Consider seven compounds from patent US5750538A, “Method of treating hypercholesterolemia and related disorders” (Novo Nordisk A/S, priority 1996, dated 1998).

A word on the IC50: it is the concentration that gives 50% inhibition. Low readings indicate greater potency, high ones weaker potency.

The target of this assay is T1, squalene synthetase (Rattus norvegicus, UniProt Q02769).
T1 construct: Rat liver microsomal preparation; from tissue; host or cells: liver microsomes of male rats (100,000 x g pellet)
T1 sequence (Q02769 1-416): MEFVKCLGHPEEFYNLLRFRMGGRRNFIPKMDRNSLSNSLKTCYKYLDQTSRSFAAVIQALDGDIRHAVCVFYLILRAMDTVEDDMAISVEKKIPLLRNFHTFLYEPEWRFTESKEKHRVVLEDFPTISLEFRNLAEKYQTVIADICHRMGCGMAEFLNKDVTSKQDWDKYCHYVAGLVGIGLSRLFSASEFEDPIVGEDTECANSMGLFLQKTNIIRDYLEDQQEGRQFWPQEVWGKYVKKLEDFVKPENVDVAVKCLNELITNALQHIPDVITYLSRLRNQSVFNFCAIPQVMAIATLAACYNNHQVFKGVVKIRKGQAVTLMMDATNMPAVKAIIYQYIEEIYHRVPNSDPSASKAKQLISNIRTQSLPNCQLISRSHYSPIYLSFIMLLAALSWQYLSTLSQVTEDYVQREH
The experiment in a line: Squalene synthetase inhibition assay in vitro (rat liver microsomal preparation, 3H-FPP). Particulars: rat liver microsomal enzyme, 3H-FPP 10 μM final conc.; for SQUALENE SYNTHETASE INHIBITION % max: maximal inhibition; for IC50: 10 min incubation at 37° C. The format is biochemical. The protocol: Squalene synthease inhibition assay in vitro
a) Rat liver microsomal preparation
Male rats weighing 200 to 300 g were decapitated and the liver removed and placed in 10 ml icecold 0.25M sucrose, 2 mM EDTA and 50 mM Tris, HCl buffer pH 7.4. The liver was homogenized in 3×volume buffer relative to weight using a glass teflon Potter-Elvehjem homogenizer set to 1000 rpm.
The homogenate was then centrifuged for 15 min. at 12,000×g at 4° C. The resultant supernatant was gently decanted into 10 ml ultracentrifuge vials and treated at 100,000×g for 60 min. at 4° C. The microsomal pellet was resuspended in a final volume of 1 ml icecold 0.1M phosphate buffer pH 7.4 per gram liver tissue by gentle homogenization in a glass Potter-Elvehjem at 800 rpm. Aliquots of 0.5 ml (approx. 20 mg/ml protein) was stored at -80° C. until further use in the squalene synthetase inhibition assay.
To begin the assay, 20 μl of the compound of this invention or vehicle solution is added to each 16×150 screw-cap culture tube on ice. Then 580 μl of N2 flushed assay buffer is pipetted into each tube. 100 μl of cofactor is next added to each tube, followed by 1 00 μl of a dilution of microsomal enzyme (approximately 80 μg protein). The tubes are preincubated for 10 min. at 37° C., and 200 μl of the ^3 H-FPP (200,000 dpm, 10 μM final conc.) is added to each tube at two second intervals. The tubes are then incubated for exactly 10 min., shaking at 150 oscillations per min. After the 10 min. incubation, the reaction is stopped by the addition of 1 ml of 15% KOH in ethanol, and the tubes are incubated for 30 min. in a 65° C. water bath for saponification of lipids and solubilization of proteins. The tubes are cooled on ice for five min. The samples are next extracted with 5 ml of petroleum ether by shaking for 10 min. at low speed on a metabolic shaker. Each lower aqueous layer is frozen in a dry ice/alcohol bath (2-propanol/methanol, 1:1), and each organic layer is poured into another set of 16 ×150 screw-top culture tubes containing 2 ml of deionized water. Each ether layer is washed by vortexing each tube for 5 sec. The aqueous layers are again frozen in the dry ice/alcohol bath, and the ether is poured into scintillation vials. 10 ml of AquaSol® is next added to each vial, and the vials are counted for 5 min. in a scintillation counter. Percent inhibitions are calculated from the counts obtained.

Each structure is given as a SMILES string.

Take `CCCCCCCSc1nsnc1C1CN2CCC1CC2` (centres unmarked): the “SQUALENE SYNTHETASE INHIBITION % max” value is given as 92% and the IC50 stood at 890 nM.

Take `c1ccc(Oc2ccc(COc3nsnc3C3CN4CCC3CC4)cc2)cc1` (centres unmarked): the “SQUALENE SYNTHETASE INHIBITION % max” value is listed as 83% and the IC50 is 300 nM.

For `c1ccc(CCCSc2nsnc2C2CN3CCC2CC3)cc1` (centres unmarked), the “SQUALENE SYNTHETASE INHIBITION % max” value is 89% and the IC50 turned out to be 900 nM.

As for `c1ccc(CCCSc2nsnc2[C@H]2CN3CCC[C@@H]2C3)cc1` (single isomer, unassigned), the “SQUALENE SYNTHETASE INHIBITION % max” value came out at 72% and half-maximal inhibition (IC50) was put at 5100 nM.

As for `c1ccc(CCCSc2nsnc2[C@@H]2CN3CCC[C@@H]2C3)cc1` (single isomer, unassigned), the “SQUALENE SYNTHETASE INHIBITION % max” value turned out to be 80% and half-maximal inhibition (IC50) was put at 1100 nM.

In the case of `c1ccc(-c2ccc(COc3nsnc3C3CN4CCC3CC4)cc2)cc1` (centres unmarked), the “SQUALENE SYNTHETASE INHIBITION % max” value is reported as 60% and the IC50 was 3900 nM.

On to `c1ccc(CCCSc2nsnc2[C@H]2CN3CC[C@@H]2C3)cc1` (relative stereo), for which the “SQUALENE SYNTHETASE INHIBITION % max” value came to 55% and 12400 nM corresponded to half-maximal inhibition (IC50).
